Here are results for 9 compounds from patent publication US8524740B2, “Synthesis and anticancer activity of aryl and heteroaryl-quinolin derivatives” (Tairx, Inc., priority 2010, dated 2013).

The structures appear in SMILES notation.

In data set [1] the test system is HL-60. As to the kind of experiment: MTT assay, HL-60 cells. Type of data set: cell-based. To be noted: Homo sapiens, 48 hrs. The protocol: (§1) MTT (3-(4,5-Dimethylthiazol-2-yl)-2,5-diphenyltetrazolium bromide) assays.^21,22 HL-60, HCT-116, Hep 3B, H460, Detroit 551 and HT29/FuR cells were treated with tested compounds for the indicated periods. After treatment, cells were washed once with PBS and incubated with MTT (Sigma, St. Louis, Mo., USA) for 2 h. The formazan precipitate was dissolved in 150 μL of DMSO, and the absorbance was measured with an ELISA reader at 570 nm.
(§2) HL-60, Hep 3B, H460, MES-SA, MES-SAID x5 and Detroit 551 cells were treated with vehicle or test compounds for 48 h. The cell growth rate was determined by MTT (3-(4,5-dimethyl-thiazol-2-yl)-2,5-diphenyltetrazoliun bromide) reduction assay.
(§3) MTT (3-(4,5-Dimethylthiazol-2-yl)-2,5-diphenyltetrazolium bromide) assays. HL-60, HCT-116, A549, Hep 3B, KB, Kb-VIN and DU145 cells were treated with tested compounds for the indicated periods. After treatment, cells were washed once with PBS and incubated with MTT (Sigma, St. Louis, Mo., USA) for 2 h. The formazan precipitate was dissolved in 150 μL of DMSO, and the absorbance was measured with an ELISA reader at 570 nm.
(§4) MTT (3-(4,5-Dimethylthiazol-2-yl)-2,5-diphenyltetrazolium bromide) assays. HL-60, Hep 3B, H460, A498, Colo205 and Detroit 551 cells were treated with tested compounds for the indicated periods. After treatment, cells were washed once with PBS and incubated with MTT (Sigma, St. Louis, Mo., USA) for 2 h. The formazan precipitate was dissolved in 150 μL of DMSO, and the absorbance was measured with an ELISA reader at 570 nm.
(Formazan colour is commonly taken as a measure of viable cells.)

In data set [2] the test system is H460. As to the kind of experiment: MTT assay, H460 cells. The data set is classed as cell-based. To be noted: Homo sapiens, NCI-H460, 48 hrs. Here is the method:
as §1, §2, §4

For data set [3], the system named is MES-SA. As to the kind of experiment: MTT assay, MES-SA cells. Type of data set: cell-based. To be noted: Homo sapiens, 48 hrs. The protocol: as §2
Data set [4] deals with MES-SA/Dx5. The data set is described as follows: MTT assay, MES-SA/Dx5 cells. Type of data set: cell-based, human. The conditions noted are these: for IC50: Homo sapiens, MES-SA/Dx5, 48 hrs; for Ratio Of SA/Dx5: IC50 MES-SA/Dx5 over IC50 MES-SA. Here is the method: as §2
The subject of data set [5] is Detroit 551. The data set is described as follows: MTT assay, Detroit 551 normal human cells. Type of data set: cell-based. To be noted: Homo sapiens, Detroit 551, 48 hrs. Here is the method: as §1, §2, §4
In data set [6] the test system is Hep3B. As to the kind of experiment: MTT assay, Hep 3B cells. Type of data set: cell-based. The conditions noted are these: Homo sapiens, 48 hrs. The protocol:
as §1, §2, §3, §4

In general, IC50 refers to the point on the concentration scale where inhibition reaches its midpoint. Higher therefore signals a need for much substance. The melting point is the temperature of the solid-liquid transition. In turn, `COc1ccccc1C1=Nc2ccc(N3CCCC3)cc2C(=O)C1` [Compound 131, 2-(2-Methoxyphenyl)-6-pyrrolidinoquinolin-4-one] displayed a melting point of 312 to 313 °C. Also, in data set [1] (Table 3, B-2 series), half-maximal inhibition (IC50) was put at 130 nM. The same compound displayed a half-maximal inhibitory concentration (IC50) in data set [2] (Table 3, B-2 series) of 570 nM. Besides, inhibition in data set [3] (Table 3, B-2 series) was half-maximal at 445 nM (IC50). Also, in data set [4] (Table 3, B-2 series), the IC50 was 451 nM and the “Ratio Of SA/Dx5” value is reported as 1.01. Moreover, the half-maximal inhibitory concentration (IC50) in data set [5] (Table 3, B-2 series) is above 10000 nM. This compound returned an IC50 in data set [6] (Table 3, B-2 series) of 300 nM.

For `O=C1CC(c2cccc3c2OCO3)=Nc2ccc(N3CCCC3)cc21` [Compound 125, 2-(Benzo[d][1,3]-dioxol-4-yl)-6-pyrrolidinoquinolin-4-one], the melting point fell in the range of 330 to 332 °C. In data set [1] (Table 3, B-2 series), this compound showed an IC50 of 80 nM. Further, in data set [2] (Table 3, B-2 series), the half-maximal inhibitory concentration (IC50) stood at 200 nM. In data set [3] (Table 3, B-2 series), this compound displayed a half-inhibitory concentration (IC50) of 100 nM. Further, in data set [4] (Table 3, B-2 series), half-maximal inhibition (IC50) was put at 183 nM and the “Ratio Of SA/Dx5” value is given as 1.83. In data set [5] (Table 3, B-2 series), this compound showed a 50% inhibitory concentration (IC50) above 2500 nM. In data set [6] (Table 3, B-2 series), this compound showed a half-maximal inhibitory concentration (IC50) of 200 nM.

In turn, `COc1cccc(C2=Nc3ccc(N4CCCC4)cc3C(=O)C2)c1OC` [Compound 127, 2-(2,3-Dimethoxyphenyl)-6-pyrrolidinoquinolin-4-one] showed a melting point of 258 to 260 °C. The compound also gave an IC50 in data set [1] (Table 3, B-2 series) of 530 nM. Moreover, in data set [2] (Table 3, B-2 series), the IC50 was found to be 1780 nM. Further, the half-inhibitory concentration (IC50) in data set [3] (Table 3, B-2 series) is 802 nM. In addition, in data set [4] (Table 3, B-2 series), half-maximal inhibition (IC50) required 1710 nM and the “Ratio Of SA/Dx5” value is recorded as 2.13. The IC50 in data set [5] (Table 3, B-2 series) was above 20000 nM. In addition, it took 1200 nM to reach half-maximal inhibition in data set [6] (Table 3, B-2 series) (IC50).

The compound `CN(C)c1ccc2c(c1)C(=O)CC(c1cccc(O)c1)=N2` [Compound 139, 2-(3-Hydroxyphenyl)-6-dimethylaminoquinolin-4-one] registered a melting point of 342 to 344 °C. In data set [1] (Table 4, B-3 series), this compound gave an IC50 of 60 nM. For the same compound, the concentration for half-maximal inhibition (IC50) in data set [2] (Table 4, B-3 series) turned out to be 6200 nM. Moreover, in data set [3] (Table 4, B-3 series), the half-maximal inhibitory concentration (IC50) is 931 nM. In data set [4] (Table 4, B-3 series), the half-maximal inhibitory concentration (IC50) is 852 nM and the “Ratio Of SA/Dx5” value came out at 0.92. In data set [5] (Table 4, B-3 series), this compound yielded a half-inhibitory concentration (IC50) of 10000 nM. In data set [6] (Table 4, B-3 series), 1000 nM corresponded to half-maximal inhibition (IC50).

`COc1ccc(OC)c(C2=Nc3ccc(N4CCCC4)cc3C(=O)C2)c1` [Compound 129, 2-(2,5-Dimethoxyphenyl)-6-pyrrolidinoquinolin-4-one]: the melting point was 272 to 274 °C. Moreover, in data set [1] (Table 3, B-2 series), the IC50 stood at 6 nM. The compound further showed an IC50 in data set [2] (Table 3, B-2 series) of 190 nM. The compound further gave an IC50 in data set [3] (Table 3, B-2 series) of 229 nM. For the same compound, in data set [4] (Table 3, B-2 series), inhibition was half-maximal at 216 nM (IC50) and the “Ratio Of SA/Dx5” value amounted to 0.94. Further, in data set [5] (Table 3, B-2 series), the concentration for half-maximal inhibition (IC50) is 5000 nM. The compound also gave an IC50 in data set [6] (Table 3, B-2 series) of 220 nM.

`COc1cccc(C2=Nc3ccc(N4CCOCC4)cc3C(=O)C2)c1OC` [Compound 126, 2-(2,3-Dimethoxyphenyl)-6-morpholinoquinolin-4-one] displayed a melting point of 235 to 236 °C. This compound registered an IC50 in data set [1] (Table 2, B-1 series) of 5220 nM. For the same compound, the 50% inhibitory concentration (IC50) in data set [2] (Table 2, B-1 series) turned out to be 17400 nM. This compound gave a 50% inhibitory concentration (IC50) in data set [3] (Table 2, B-1 series) of 5000 nM. Further, in data set [4] (Table 2, B-1 series), the IC50 worked out at 17500 nM and the “Ratio Of SA/Dx5” value was 3.49. Moreover, the concentration for half-maximal inhibition (IC50) in data set [5] (Table 2, B-1 series) was above 50000 nM. Further, in data set [6] (Table 2, B-1 series), the 50% inhibitory concentration (IC50) stood at 9800 nM.

`O=C1CC(c2cccc(O)c2)=Nc2ccc(N3CCCC3)cc21` [Compound 138, 2-(3-Hydroxyphenyl)-6-pyrrolidinoquinolin-4-one] registered a melting point of 364 to 367 °C. In data set [1] (Table 3, B-2 series), this compound registered a half-maximal inhibitory concentration (IC50) of 9 nM. In addition, the IC50 in data set [2] (Table 3, B-2 series) is 400 nM. The compound further showed an IC50 in data set [3] (Table 3, B-2 series) of 734 nM. In addition, in data set [4] (Table 3, B-2 series), inhibition was half-maximal at 320 nM (IC50) and the “Ratio Of SA/Dx5” value worked out at 0.23. For the same compound, the IC50 in data set [5] (Table 3, B-2 series) turned out to be 1390 nM. In data set [6] (Table 3, B-2 series), this compound returned a 50% inhibitory concentration (IC50) of 280 nM.

Take `O=C1CC(c2cccc3c2OCO3)=Nc2ccc(N3CCOCC3)cc21` [Compound 124, 2-(Benzo[d][1,3]-dioxol-4-yl)-6-morpholinoquinolin-4-one]: the melting point fell in the range of 350 to 352 °C. The compound also gave a half-maximal inhibitory concentration (IC50) in data set [1] (Table 2, B-1 series) of 720 nM. The same compound showed an IC50 in data set [2] (Table 2, B-1 series) of 2130 nM. In data set [3] (Table 2, B-1 series), this compound yielded a concentration for half-maximal inhibition (IC50) of 2350 nM. Also, in data set [4] (Table 2, B-1 series), the IC50 turned out to be 2100 nM and the “Ratio Of SA/Dx5” value turned out to be 0.89. In data set [5] (Table 2, B-1 series), this compound displayed an IC50 above 2500 nM. It took 1500 nM to reach half-maximal inhibition in data set [6] (Table 2, B-1 series) (IC50).

The compound `O=C1CC(c2ccccc2O)=Nc2ccc(N3CCCC3)cc21` [Compound 135, 2-(2-Hydroxyphenyl)-6-pyrrolidinoquinolin-4-one] registered a melting point of 304 to 306 °C. Further, 360 nM corresponded to half-maximal inhibition in data set [1] (Table 3, B-2 series) (IC50). In addition, in data set [2] (Table 3, B-2 series), the IC50 amounted to 860 nM. In addition, in data set [3] (Table 3, B-2 series), the IC50 is 846 nM. Besides, in data set [4] (Table 3, B-2 series), the IC50 worked out at 1000 nM and the “Ratio Of SA/Dx5” value is 1.18. In data set [5] (Table 3, B-2 series), this compound showed a 50% inhibitory concentration (IC50) of 25000 nM. The compound further displayed a half-maximal inhibitory concentration (IC50) in data set [6] (Table 3, B-2 series) of 1310 nM.
